Where “and” joins values, the source holds several entries; their conditions need not be identical. Identical values can stand only once. Like-named read-outs stand apart in the source and are kept apart here.
Key:
[1] = tested on: LPS-induced acute lung injury (ALI); test: Mouse model of LPS-induced ALI, BALF cell count and BALF protein; type: in vivo; settings: dexamethasone 5 mg/kg IP at T=0 and 6, positive control in the experiments of the compound of that line; mean ± SEM
Protocol: LPS was instilled into the trachea of anesthetized mice. […] The efficacy endpoints were total cell counts and total protein in BALF. All studies were conducted using vehicle negative controls and dexamethasone (5 mg/kg IP at T=0 and 6) as a positive control. Data were analyzed by 1-way ANOVA followed by Tukey's multiple comparison test (GRAPHPAD PRISM® software, version 6.05). […] Reductions in BALF total protein were also observed. […]

[2] = Solubility of ARF6 prodrugs in various vehicles (Table 4); type: physicochemical
[3] = molecular target: ARF6 (Homo sapiens, UniProt P62330); test: ARF6 inhibition, biochemical fluorometric nucleotide exchange assay
Chain of ARF6 (P62330 whole entry, species assumed): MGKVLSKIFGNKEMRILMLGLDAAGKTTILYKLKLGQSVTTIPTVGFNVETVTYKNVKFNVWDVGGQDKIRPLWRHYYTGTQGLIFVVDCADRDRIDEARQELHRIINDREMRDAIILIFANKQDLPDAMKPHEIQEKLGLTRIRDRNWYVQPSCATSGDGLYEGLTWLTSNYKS
Excerpt: These ARF6 inhibitors were discovered using a high-throughput biochemical, fluorometric nucleotide exchange assay to screen 100,000 compounds from a commercially available compound library. Medicinal chemistry optimization efforts have also been conducted. In some embodiments, the clinical potential of the discovered small molecule ARF6 inhibitors can be limited by poor solubility. Accordingly, the synthesis and development of water soluble prodrugs of ARF6 inhibitors can be advantageous. […]

[4] = Solubility in water and PBS pH 7.4 (Tables 1 and 2); type: physicochemical
[5] = tested on: multidrug-resistant Pseudomonas aeruginosa (PA); test: Multidrug-resistant Pseudomonas aeruginosa mouse model of pneumonia; type: in vivo; settings: NAV-AAR′ 38 and 64 mg/kg subcutaneous once daily for 6 days
Protocol: NAV-AAR′ is also active in a multidrug-resistant Pseudomonas aeruginosa (PA) mouse model of pneumonia. […] NAV-AAR′ was administered by subcutaneous injection once daily for 6 days. The antibiotic meropenem was ineffective against MDR PA in this model.

[6] = 20 mM Na citrate buffer, pH 3.1, aqueous buffer, kinetic from dmso stock, diluted from 10 mM solution in DMSO, read-out: Solubility (μM) 20 mM Na Citrate, pH 3.1
[7] = water, kinetic from dmso stock, diluted from 10 mM solution in DMSO, read-out: Solubility (μM) H2O
[8] = Table 2, water, read-out: Solubility Water
[9] = Table 1, water, read-out: Solubility Water
[10] = aqueous buffer, Table 1, PBS pH 7.4, read-out: Solubility PBS pH 7.4

Row | SMILES | solubility [4, 9] | solubility [4, 10] [µM] | IC50 ([3]; Table 1, read-out: ARF6 IC50) [µM] | other results
1 | C[C@@H]1C[C@H]2[C@@H]3CCC4=CC(=O)C=C[C@]4(C)[C@@]3(F)[C@@H](O)C[C@]2(C)[C@@]1(O)C(=O)CO [DEX, dexamethasone, reference compound] |  |  |  | percent reduction in LPS-induced increase in BALF cell count, DEX [1]: 64 ± 9% and 74 ± 5% and 63 ± 4% and 59 ± 5% and 70 ± 7%
2 | NCC(=O)Oc1cc([N+](=O)[O-])ccc1-c1cc(=O)[nH]c2c(-c3ccc(Cl)cc3)c(Cc3ccccc3)nn12.O=C(O)C(F)(F)F [Example III, [2-[2-Benzyl-3-(4-chlorophenyl)-5-oxo-4H-pyrazolo[1,5-a]pyrimidin-7-yl]-5-nitro-phenyl] 2-aminoacetate trifluoroacetate] |  |  |  | solubility [2, 6]: 325 µM; solubility [2, 7]: 375 µM
3 | C[C@H](N)C(=O)Oc1cc([N+](=O)[O-])ccc1-c1cc(=O)[nH]c2c(-c3ccc(Cl)cc3)c(Cc3ccccc3)nn12.O=C(O)C(F)(F)F [Example V, [2-[2-Benzyl-3-(4-chlorophenyl)-5-oxo-4H-pyrazolo[1,5-a]pyrimidin-7-yl]-5-nitro-phenyl] (2S)-2-aminopropanoate trifluoroacetate] |  |  |  | solubility [2, 6]: 160 µM; solubility ([2]; 0.1% Tween 80 in D5W, aqueous with cosolvent or surfactant or cyclodextrin, kinetic from dmso stock, diluted from 10 mM solution in DMSO, read-out: Solubility (μM) 0.1% Tween 80 in D5W): 5.4 µM; solubility ([2]; DPBS, pH 7.4, aqueous buffer, kinetic from dmso stock, diluted from 10 mM solution in DMSO, read-out: Solubility (μM) DPBS, pH 7.4): < 1 µM; solubility ([2]; saline or isotonic, thermodynamic from solid, D5W, prepared from powder, read-out: Solubility (μM) D5W Prepared from powder): 20 µM; solubility [2, 7]: 150 µM; IC50 ([3]; Table 4, read-out: ARF6 inhibition IC50): 1.9 µM
4 | Cc1ccc(-c2c[nH]c3c(-c4ccc(Cl)cc4)c(Cc4ccccc4)nn3c2=O)c(O)c1 [NAV-AAC′] |  |  |  | solubility [4, 8]: < 1 mg/mL; IC50 ([3]; Table 2, read-out: ARF6 IC50): 3.3 µM
5 | N#Cc1ccc(-c2cc(=O)[nH]c3c(-c4ccc(Cl)cc4)c(Cc4ccccc4)nn23)c(OC(=O)[C@@H](N)CCCCN)c1 [NAV-AAD] | 300 µM | < 1 | 2.9 | 
6 | NCCCC[C@H](N)C(=O)Oc1cc(F)ccc1-c1cc(=O)[nH]c2c(-c3ccc(Cl)cc3)c(Cc3ccccc3)nn12 [NAV-AAE] |  |  | 3.3 | 
7 | Cc1ccc(-c2cc(=O)[nH]c3c(-c4ccc(Cl)cc4)c(Cc4ccccc4)nn23)c(OC(=O)[C@@H](N)CCCCN)c1 [NAV-AAF] |  |  | > 50 | 
8 | O=c1cc(-c2ccc(F)cc2OP(=O)(O)O)n2nc(Cc3ccccc3)c(-c3ccc(Cl)cc3)c2[nH]1 [NAV-AAP] |  |  | 9.2 | 
9 | O=c1c(-c2ccc(F)cc2OP(=O)([O-])[O-])c[nH]c2c(-c3ccc(Cl)cc3)c(Cc3ccccc3)nn12.[Na+].[Na+] [NAV-AAP′] |  |  |  | solubility [4, 8]: > 50 mg/mL; IC50 ([3]; Table 2, read-out: ARF6 IC50): 9.2 µM
10 | Cc1ccc(-c2cc(=O)[nH]c3c(-c4ccc(Cl)cc4)c(Cc4ccccc4)nn23)c(OP(=O)(O)O)c1 [NAV-AAQ] | > 50 mg/mL |  | 4.6 | 
11 | Cc1ccc(-c2cc(=O)[nH]c3c(-c4ccc(Cl)cc4)c(Cc4ccccc4)nn23)c(OP(=O)([O-])[O-])c1.[Na+].[Na+] [NAV-AAR] | > 50 mg/mL |  |  | 
12 | N#Cc1ccc(-c2cc(=O)[nH]c3c(-c4ccc(Cl)c(Cl)c4)c(C(F)(F)F)nn23)c(OC(=O)[C@@H](N)CCCCN)c1 [NAV-AA] | > 500 µM | 19 | 1.9 | 
13 | N#Cc1ccc(-c2cc(=O)[nH]c3c(-c4ccc(Cl)c(Cl)c4)c(C4CC4)nn23)c(OC(=O)[C@@H](N)CCCCN)c1 [NAV-AB] | 500 µM | < 1 | 2.4 | 
14 | O=c1cc(-c2ccc(F)cc2O)n2nc(Cc3ccccc3)c(-c3ccc(Cl)cc3)c2[nH]1 [NAV-AD] | < 1 µM | < 1 | 2.4 | 
15 | O=c1cc(-c2ccc(F)cc2O)n2nc(C3CC3)c(-c3ccc(Cl)c(Cl)c3)c2[nH]1 [NAV-AF] | 1.1 µM | < 1 | 1.9 | 
16 | NCCCC[C@H](N)C(=O)Oc1ccccc1-c1cc(=O)[nH]c2c(-c3ccc(Cl)c(Cl)c3)c(C(F)(F)F)nn12 [NAV-AG] | > 500 µM | 435 | 26 | 
17 | O=c1cc(-c2ccc(F)cc2O)n2nc(C(F)(F)F)c(-c3ccc(Cl)c(Cl)c3)c2[nH]1 [NAV-AW] | < 1 µM | 30 | 1.6 | 
18 | O=c1cc(-c2ccc(F)cc2O)n2nc(C(F)(F)F)c(-c3ccc(Cl)cc3)c2[nH]1 [NAV-AY] | 4.5 µM | 70 | 6.2 | 
19 | O=c1cc(-c2ccccc2O)n2nc(Cc3ccccc3)c(-c3ccc(Cl)cc3)c2[nH]1 [NAV-C] | 9.2 µM | 1.4 | 7.2 | 
20 | O=c1cc(-c2ccc(Cl)cc2O)n2nc(Cc3ccccc3)c(-c3ccc(Cl)cc3)c2[nH]1 [NAV-D] | < 1 µM | < 1 | 11 | 

Row | SMILES | solubility [4, 9] | solubility [4, 10] [µM] | IC50 ([3]; Table 1, read-out: ARF6 IC50) [µM] | other results
21 | O=c1cc(-c2ccccc2O)n2nc(C(F)(F)F)c(C3CCCCC3)c2[nH]1 [NAV-E] | < 1 µM | 68 | 12 | 
22 | O=c1cc(-c2ccc(Cl)cc2O)n2nc(C(F)(F)F)c(C3CCCCC3)c2[nH]1 [NAV-F] | < 1 µM | 21 | 4.9 | 
23 | O=c1cc(-c2ccccc2O)n2nc(CN3CCOCC3)c(-c3ccc(Cl)cc3)c2[nH]1 [NAV-G] | 56 µM | 82 | > 50 | 
24 | O=c1cc(-c2ccc(Cl)cc2O)n2nc(CN3CCOCC3)c(-c3ccc(Cl)cc3)c2[nH]1 [NAV-H] | 7 µM | 13 | 30 | 
25 | O=c1cc(-c2ccccc2O)n2nc(C3CC3)c(-c3ccc(Cl)c(Cl)c3)c2[nH]1 [NAV-I] | 29 µM | 1.8 | 21 | 
26 | O=c1cc(-c2ccc(Cl)cc2O)n2nc(C3CC3)c(-c3ccc(Cl)c(Cl)c3)c2[nH]1 [NAV-J] | < 1 µM | < 1 | 12 | 
27 | O=c1cc(-c2ccc(Cl)cc2O)n2nc(C(F)(F)F)c(-c3ccc(Cl)cc3)c2[nH]1 [NAV-K] | < 1 µM | 43 | 4.2 | 
28 | O=c1cc(-c2ccc([N+](=O)[O-])cc2O)n2nc(C3CC3)c(-c3ccc(Cl)c(Cl)c3)c2[nH]1 [NAV-L] | < 1 µM | 20 | 6.2 | 
29 | O=c1cc(-c2ccccc2O)n2nc(C(F)(F)F)c(-c3ccc(Cl)cc3)c2[nH]1 [NAV-M] | 4 µM | 43 | 10 | 
30 | O=c1cc(-c2ccccc2O)n2nc(C(F)(F)F)c(-c3ccc(Cl)c(Cl)c3)c2[nH]1 [NAV-O] | < 1 µM | 38 | 2.8 | 
31 | N#Cc1ccc(-c2cc(=O)[nH]c3c(-c4ccc(Cl)c(Cl)c4)c(C(F)(F)F)nn23)c(O)c1 [NAV-P] | 5.75 µM | 19.6 | 1.4 | 
32 | N#Cc1ccc(-c2cc(=O)[nH]c3c(-c4ccc(Cl)cc4)c(C(F)(F)F)nn23)c(O)c1 [NAV-Q] | < 1 µM | 11 | 5.1 | 
33 | N#Cc1ccc(-c2cc(=O)[nH]c3c(-c4ccc(Cl)cc4)c(Cc4ccccc4)nn23)c(O)c1 [NAV-R] | < 1 µM | 1.7 | 1.9 | 
34 | N#Cc1ccc(-c2cc(=O)[nH]c3c(-c4ccc(Cl)c(Cl)c4)c(C4CC4)nn23)c(O)c1 [NAV-S] | 10.2 µM | 14 | 2 | 
35 | O=c1cc(-c2ccc(C(F)(F)F)cc2O)n2nc(C(F)(F)F)c(-c3ccc(Cl)c(Cl)c3)c2[nH]1 [NAV-T] | 13 µM | 11 | 2.3 | 
36 | O=c1cc(-c2ccc(C(F)(F)F)cc2O)n2nc(Cc3ccccc3)c(-c3ccc(Cl)cc3)c2[nH]1 [NAV-U] | 20 µM | 14 | 6.7 | 
37 | O=c1cc(-c2ccc(C(F)(F)F)cc2O)n2nc(C3CC3)c(-c3ccc(Cl)c(Cl)c3)c2[nH]1 [NAV-V] | 30 µM | 6 | 3.2 | 
38 | NCCCC[C@H](N)C(=O)Oc1ccccc1-c1cc(=O)[nH]c2c(-c3ccc(Cl)cc3)c(Cc3ccccc3)nn12 [NAV-Y] | 438 µM | 144 | 30 | 
39 | NCCCC[C@H](N)C(=O)Oc1cc(Cl)ccc1-c1cc(=O)[nH]c2c(-c3ccc(Cl)cc3)c(C(F)(F)F)nn12 [NAV-Z] | 450 µM | 22 | 4.25 | 
40 | C[C@@H](O)[C@H]1C(=O)N2C(C(=O)O)=C(S[C@@H]3CN[C@H](C(=O)N(C)C)C3)[C@H](C)[C@H]12 [meropenem, reference compound] |  |  |  | survival in MDR PA pneumonia [5]: ineffective

— patent US11414442B2, “ARF6 inhibitors and related methods” (Navigen, Inc., priority 2017, dated 2022)
